The source of these data is patent US20240315992A1, “AMINOXY ACID-BASED ANTIBACTERIAL COMPOUNDS AND METHODS THEREOF” (The University of Hong Kong, priority 2023, published 2024).

SMILES strings stand for the structures. ≈ marks a conversion by molar mass, not a printed value.

The test system of the first assay is multidrug resistant Staphylococcus aureus Mu3. Description: MIC by CLSI broth micro-dilution, MRSA Mu3. To be noted: MRSA, CLSI broth micro-dilution, CAMH, read-out: Minimum inhibitory concentration (μM) in MRSA Mu3. It counts as cell-based. As to the method:
Aminoxy acids were synthesized by the standard peptide coupling procedures. Minimum inhibitory concentration was determined using CLSI broth micro-dilution method in 96-wells microtitre plates. Minimum inhibitory concentration is defined as the lowest concentration of the compound that inhibits visible growth of the bacteria. All experiments were performed three times. 24 compounds including aminoxy acid monomers and dipeptides have been identified to show toxicity against multidrug resistant Staphylococcus aureus Mu3 and summarized in Table 1. The minimum inhibitory concentration of compound 8 and compound 35 on other gram-positive bacteria was also evaluated and summarized in Table 2. […] As shown in FIGS. 3A-3B there are no observable hemolysis for compound 8 and compound 35 towards human red blood cell.
Bacteria were streaked from the glycerol stock into BHI agar and were incubated overnight. Single colony was picked for the overnight culture in cation-adjusted Mueller Hinton broth (CAMH), LB or BHI. The overnight culture was sub-cultured and regrew to exponential phase for the experiment.
MIC was determined by CLSI broth micro-dilution method in 96-wells microtitre plates. For compounds dissolved in water, 100 μL of 2× testing concentration was added to the first well of each column, followed by two-fold serial dilution for successive wells with 50 μL medium. For chemical compounds dissolved in DMSO, the compounds were two-fold serial diluted by DMSO in a DMSO-compatible 96-well plate. 1 μL of compound in DMSO was transferred into 96-wells microtitre plate containing 50 μL medium to give 2× testing concentration. An overnight culture of bacteria was grown into exponential phase. The bacteria culture was diluted to 1×10^6 CFU/mL and 50 μL of diluted culture were added into each well. The test plates were kept in a 37° C. incubator overnight. Optical density was recorded by DTX 880 multimode detector (Beckman Coulter, California, US). MIC is defined as the lowest concentration of the compound that inhibits visible growth of bacteria. Biological replicates were performed. CAMH was used for bacteria culture and MIC test except S. pneumoniae, L. monocytogenes, E. faecalis and M. smegmatis for which BHI was used as culture medium
(Dilution methods test growth across graded concentrations, often in twofold steps.)
Take `CC(C)C[C@H](ONC(=O)[C@@H](COCc1ccccc1)ONC(=O)c1cc(C(F)(F)F)cc(C(F)(F)F)c1)C(=O)NCc1ccccc1` [Compound 30]: the MIC is above 12.5 µM.

Take `Cc1noc(C)c1C(=O)NO[C@H](COCc1ccccc1)C(=O)NO[C@@H](CC(C)C)C(=O)Nc1ccc2c(c1)OC(F)(F)O2` [Compound 50]: the MIC is above 12.5 µM.

As to `CC(C)C[C@H](ONC(=O)[C@@H](COCc1ccccc1)ONC(=O)c1ccc[nH]1)C(=O)Nc1ccc2c(c1)OC(F)(F)O2` [Compound 51], the MIC is above 12.5 µM.

Regarding `CC(C)C[C@H](ONC(=O)[C@@H](COCc1ccccc1)ONC(=O)c1ccc2c(c1)OC(F)(F)O2)C(=O)Nc1ccc2c(c1)OC(F)(F)O2` [Compound 52], the MIC came out at 3.13 µM (≈ 2.13 µg/mL).

`Cc1ccc(S(=O)(=O)NO[C@H](COCc2ccccc2)C(=O)NO[C@@H](CC(C)C)C(=O)Nc2ccc3c(c2)OC(F)(F)O3)cc1` [Compound 53]: the MIC is above 12.5 µM.

On to `CC(C)C[C@H](ONC(=O)[C@@H](COCc1ccccc1)ONS(=O)(=O)c1ccc(C(F)(F)F)cc1)C(=O)Nc1ccc2c(c1)OC(F)(F)O2` [Compound 54], for which the MIC was above 12.5 µM.

`CC(C)C[C@H](ONC(=O)[C@@H](COCc1ccccc1)ONS(=O)(=O)c1cc(C(F)(F)F)cc(C(F)(F)F)c1)C(=O)Nc1ccc2c(c1)OC(F)(F)O2` [Compound 55]: the MIC is above 12.5 µM.

Consider `CC(C)C[C@H](NC(=O)[C@@H](COCc1ccccc1)ONC(=O)c1cc(C(F)(F)F)cc(C(F)(F)F)c1)C(=O)Nc1ccccc1` [Compound 56], for which the MIC worked out at 6.25 µM (≈ 4 µg/mL).

For `CC(C)C[C@H](ONC(=O)[C@@H](COCc1ccccc1)NC(=O)c1cc(C(F)(F)F)cc(C(F)(F)F)c1)C(=O)Nc1ccccc1` [Compound 57], the MIC is above 12.5 µM.

The subject of the next assay is Staphylococcus aureus strain USA300-LAC. As to the kind of experiment: Non-lethal bacteremia model, bacteria loads in organs. The format is in vivo, Balb/c mice. The conditions noted are these: 10 mg/kg/day intraperitoneal, 4 days. As to the method: FIG. 9 are the bar graphs showing compound 8 and compound 35 reduce bacteria loads in different organs of the mice infected by Staphylococcus aureus. Grubb's test was performed to test for outliers. Statistical analysis was performed with two-sided paired t test. (*p<0.05).
Staphylococcus aureus strain USA300-LAC were cultured to the early exponential phase of growth, washed twice with sterile phosphate-buffered saline solution (PBS), and resuspended in PBS at 5×10^6 CFU/200 μL for non-lethal bacteremia model. The female Balb/c mice, 6-8 weeks, were infected intravenously (i.v.) through the tail vein with Staphylococcus aureus and randomized into three groups (N=14 for vehicle; N=12 for compound 8 and compound 35 respectively). One hour after infection, mice received intraperitoneal injections of compound 8 or compound 35 (10 mg/kg/day) or an injection of buffer (PBS with 2.5% DMSO and 2% Tween-80) as the control. The compound and injection buffer treatments were performed twice per day at 12-h intervals. The challenged mice were monitored for 4 days, at which point all the remaining mice were sacrificed. The CFU of S. aureus were determined in heart, liver, kidney and lung by plating in series dilution. Grubb's test was performed to test for outliers. Statistical analysis was performed with two-sided paired t test. (*p<0.05).
Regarding `CC(C)C[C@H](ONC(=O)[C@@H](COCc1ccccc1)ONC(=O)c1cc(C(F)(F)F)cc(C(F)(F)F)c1)C(=O)NCc1ccccc1` [Compound 30], the “bacteria load in heart” value is “can reduce the bacteria load”, the “bacteria load in liver” value is given as “can reduce the bacteria load” and the “bacteria load in lung” value is listed as “can reduce the bacteria load”.
